Data reported in US20150203498A1, “INHIBITORS OF PHOSPHODIESTERASE 10 ENZYME” (Janssen Pharmaceutica NV, priority 2012, published 2015).
Values joined by “and” are separate entries in the source; they are usually repeats but may differ in a detail not shown here. Equal values may be shown once. Read-outs that look alike come from different tables or passages of the source.

Columns and labels:
[1] = molecular target: T1, hPDE10A2 (Homo sapiens, UniProt Q9Y233); experiment: In vitro assay PDE10A, human recombinant enzyme (SPA, 3H-cAMP); type: biochemical; conditions: -log IC50 expressed in mol/L; 60 nM cAMP; read-out: PDE10A2 pIC50 - human enzyme (converted)
T1 construct: made in house; host or cells: Sf9 insect cells (baculovirus)
Experimental: (§1) Human or rat recombinant PDE10A (hPDE10A2 or rPDE10A2) was expressed in Sf9 cells using a recombinant hPDE10A or rPDE10A baculovirus construct. Cells were harvested after 48 h of infection and the hPDE10A or rPDE10A protein was purified by metal chelate chromatography on Ni-sepharose 6FF. Tested compounds were dissolved and diluted in 100% DMSO to a concentration 100 fold of the final concentration in the assay. Compound dilutions (0.4 μl) were added in 384 well plates to 20 μl of incubation buffer (50 mM Tris pH 7.8, 8.3 mM MgCl2, 1.7 mM EGTA). 10 μl of hPDE10A or rPDE10A enzyme in incubation buffer was added and the reaction was started by addition of 10 μl substrate to a final concentration of 60 nM cAMP and 0.008 μCi ^3H-cAMP. The reaction was incubated for 60 min. at RT. After incubation, the reaction was stopped with 20 μl of stop solution consisting of 17.8 mg/ml PDE SPA (scintillation proximity assay) beads. After sedimentation of the beads during 30 min. the radioactivity was measured in a Perkin Elmer Topcount scintillation counter and results were expressed as cpm. For blanc values the enzyme was omitted from the reaction and replaced by incubation buffer. Control values were obtained by addition of a final concentration of 1% DMSO instead of compound. A best fit curve was fitted by a minimum sum of squares method to the plot of % of control value substracted with blanc value versus compound concentration and the half maximal inhibitory concentration (IC50) value was derived from this curve.

[2] = molecular target: T2, rPDE10A2 (Rattus norvegicus, UniProt Q9QYJ6); experiment: In vitro assay PDE10A, rat recombinant enzyme (SPA, 3H-cAMP); type: biochemical; conditions: -log IC50 expressed in mol/L; 60 nM cAMP; read-out: PDE10A2 pIC50 - rat enzyme (converted)
T2 construct: made in house; host or cells: Sf9 insect cells (baculovirus)
T2 sequence (Q9QYJ6 1-794): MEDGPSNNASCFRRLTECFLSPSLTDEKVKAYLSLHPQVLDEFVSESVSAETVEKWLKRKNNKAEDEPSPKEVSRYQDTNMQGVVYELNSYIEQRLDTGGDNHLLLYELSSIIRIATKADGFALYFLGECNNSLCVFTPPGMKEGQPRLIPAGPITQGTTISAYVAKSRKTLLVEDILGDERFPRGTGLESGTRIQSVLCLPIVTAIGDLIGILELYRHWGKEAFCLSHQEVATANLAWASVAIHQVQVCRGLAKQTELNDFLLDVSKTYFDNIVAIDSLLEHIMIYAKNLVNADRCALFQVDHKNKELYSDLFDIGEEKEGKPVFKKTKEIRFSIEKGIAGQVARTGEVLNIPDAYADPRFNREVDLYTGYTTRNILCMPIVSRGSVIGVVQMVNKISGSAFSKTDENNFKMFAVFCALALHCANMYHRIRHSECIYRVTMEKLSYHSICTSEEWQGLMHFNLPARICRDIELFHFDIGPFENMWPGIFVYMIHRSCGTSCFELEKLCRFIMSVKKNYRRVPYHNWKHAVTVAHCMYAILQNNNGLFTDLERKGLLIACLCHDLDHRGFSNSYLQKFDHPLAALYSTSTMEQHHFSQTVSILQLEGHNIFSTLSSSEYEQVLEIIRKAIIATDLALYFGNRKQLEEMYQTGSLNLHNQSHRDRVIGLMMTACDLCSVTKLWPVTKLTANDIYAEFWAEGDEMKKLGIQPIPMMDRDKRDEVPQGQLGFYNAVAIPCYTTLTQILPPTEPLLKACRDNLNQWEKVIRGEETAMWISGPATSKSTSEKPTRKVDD
Experimental: as §1

[3] = system: apomorphine-induced stereotypy; experiment: Apomorphine-induced stereotypy in rats (APO); type: in vivo, rat; conditions: apomorphine 1.0 mg/kg i.v.; for ED50: Rattus norvegicus
Experimental: Apomorphine (1.0 mg/kg, i.v.)-induced stereotypy (compulsive sniffing, licking, chewing) was scored every 5 min. over the first hour after injection of apomorphine, following a 1 hour interval pre-treatment with the test compound. The score system was: (3) pronounced, (2) moderate, (1) slight, and (0) absent. Criteria for drug-induced inhibition of stereotypy: fewer than 6 scores of 3 (0.16% false positives), fewer than 6 scores of 2 (0.0% false positives), or fewer than 7 scores of 1 (0.81% false positives).

[4] = system: plasma proteins; experiment: Plasma protein binding by equilibrium dialysis; type: in vitro ADME, human; conditions: human plasma; for Free fraction, Average per subject: average of duplicate per subject; for Free fraction: single determinations, subjects 1-3 in duplicate, equilibrium dialysis 4 h, 37° C.; for Concentration dependency in the plasma protein binding: within the concentration range tested
Experimental: (§2) The plasma protein binding and blood distribution was investigated in healthy human subjects. Fresh blood was collected and centrifugated (approximately 1700 g for 10 min, room temperature, Hettich Rotixa AP centrifuge). The experiment was started within 4 hours after blood collection.
(§3) Individual blank plasma samples from three healthy male subjects, tested in duplicate, were fortified with compound la or compound lb at different concentrations (see Table 5). Plasma samples were spiked with 10 μl spike solution per ml of sample (1% ethanol (v/v)).
(§4) Fortified plasma was subjected to equilibrium dialysis (ED), for 4 h against a 0.067 M phosphate buffer, pH 7.17 at 37° C. in a Dianorm system with identical macro-1 Teflon cells and Spectra/Por® RC 2 dialysis membranes (MW cut-off 12-14 kDa). After dialysis, the contents of the two compartments of the dialysis cells were collected separately. The buffer samples were diluted with 1 mL of 5% Bovine Serum Albumin in a Phosphate buffer 0.05M, pH 7.5.
(§5) The plasma samples (before and after equilibrium dialysis) and buffer samples were analysed for compound la or compound lb using a qualified chiral LC-MS/MS assay on a API4000 mass spectrometer (Applied Biosystems).
(§6) The fraction of the unbound test compound (fu) was calculated as the ratio of the unbound concentration (Cu) in the buffer compartment to the total concentration (CED) in the protein compartment of the dialysis cells. The percentage of the free test compound was calculated as […]

[5] = Pharmacokinetics of oral microdose in healthy subjects; type: in vivo, human; conditions: single oral dose of 100 μg
Excerpt: The pharmacokinetics of an oral microdose of compound 1 according to the invention and compound 1 of WO2011/051342 was studied by a single-dose, open-label, parallel-group, randomized pharmacokinetic (PK) study. Each treatment group consisted of 6 subjects (healthy men between 18 to 55 years with a body mass index (BMI) between 18 and 30 kg/m^2 (inclusive) and body weight not less than 50 kg). Subjects were randomized to receive either compound 1 of WO2011/051342 or compound 1 (according to the invention) treatment.
Compound 1 of WO2011/051342 and compound 1 according to the invention were supplied as a 0.1 mg/mL oral solution containing HP-β-CD and citric acid in purified water. The pH of the solution was adjusted to pH 2.0 by the use of hydrochloric acid. Subjects were admitted to the investigational site on Day -1. Following an overnight fast of at least 10 hours, subjects received a single oral aqueous solution of […] of compound 1 of WO2011/051342 or compound 1 according to the invention, with 240 mL of noncarbonated water as per randomization in the morning of Day 1 between 7:00 AM and 10:30 AM. Drinks were not allowed from 1 hour prior until 1 hour after drug administration. Blood samples were collected at specified time points to measure compound 1 of WO2011/051342 or compound 1 (according to the invention) plasma concentrations. Subjects were discharged on Day 3 after collecting the 48-hour PK sample. Subjects returned to the clinical unit on the morning of Day 4 for the 72-hour PK blood sampling.
Venous blood samples of 6 mL for the measurement of compound 1 of WO2011/051342 or compound 1 according to the invention plasma concentrations were collected at specified time points.
Plasma samples were analyzed to determine concentrations of compound 1 of WO2011/051342 or compound 1 according to the invention using a qualified liquid chromatography/mass spectrometry/mass spectrometry (LC-MS/MS) method.
Pharmacokinetic analyses were performed for all subjects' data who received a dose of compound 1 of WO2011/051342 and compound 1 according to the invention. Plasma concentrations versus time profiles were plotted for each subject. Mean concentration versus time profiles were plotted for each compound, based on planned blood sampling times. Descriptive statistics, including arithmetic mean, standard deviation, CV, geometric mean, median, minimum, and maximum were calculated for the plasma concentrations at each sampling time and for all PK parameters of compound 1 of WO2011/051342 and compound 1 according to the invention.

[6] = Plasma protein binding by equilibrium dialysis; type: in vitro ADME, human; conditions: male, human, plasma, pH 7.17, human plasma
Experimental: as §2, §3, §4, §5, §6

[7] = male, human, plasma, 100 ug, fasted, mean
[8] = iv, 1 hour pre-treatment with test compound, dose at which 50% of animals show the effect
[9] = average of duplicate per subject, read-out: Free fraction, Average per subject
[10] = single determinations, subjects 1-3 in duplicate, equilibrium dialysis 4 h, 37° C., read-out: Free fraction

T1 sequence (Q9Y233 267-1055): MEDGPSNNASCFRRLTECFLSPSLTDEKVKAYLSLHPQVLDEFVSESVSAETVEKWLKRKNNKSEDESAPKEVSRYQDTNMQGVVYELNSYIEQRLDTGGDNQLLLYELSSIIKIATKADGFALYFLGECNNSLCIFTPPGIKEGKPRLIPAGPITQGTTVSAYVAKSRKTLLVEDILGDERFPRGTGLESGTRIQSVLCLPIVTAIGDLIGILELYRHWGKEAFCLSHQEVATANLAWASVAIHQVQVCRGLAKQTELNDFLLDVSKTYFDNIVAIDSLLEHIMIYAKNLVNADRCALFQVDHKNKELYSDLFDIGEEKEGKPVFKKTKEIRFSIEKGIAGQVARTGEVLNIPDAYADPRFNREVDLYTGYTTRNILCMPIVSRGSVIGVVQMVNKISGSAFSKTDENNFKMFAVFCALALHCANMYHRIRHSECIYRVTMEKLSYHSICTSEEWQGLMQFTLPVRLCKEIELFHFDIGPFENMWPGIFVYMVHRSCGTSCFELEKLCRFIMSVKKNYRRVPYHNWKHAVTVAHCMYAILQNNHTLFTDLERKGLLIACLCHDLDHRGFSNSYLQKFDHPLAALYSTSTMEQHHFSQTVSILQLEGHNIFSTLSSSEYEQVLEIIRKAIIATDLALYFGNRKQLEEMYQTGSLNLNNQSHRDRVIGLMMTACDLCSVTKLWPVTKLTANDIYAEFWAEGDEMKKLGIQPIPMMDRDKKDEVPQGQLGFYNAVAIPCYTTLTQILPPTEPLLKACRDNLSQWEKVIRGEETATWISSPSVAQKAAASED

| Compound | IC50 [1] | IC50 [2] | Average percentage of free compound in plasma ([4]; 0.1 μg/ml) | Free fraction, Average per subject ([4]; 0.1 μg/ml) | Free fraction ([4]; 0.1 μg/ml) | Average percentage of free compound in plasma ([4]; 13 μg/ml) | Free fraction, Average per subject ([4]; 13 μg/ml) | Free fraction ([4]; 13 μg/ml) | Concentration dependency in the plasma protein binding [4] | melting point | ED50 [3, 8] | also measured |
| --- | --- | --- | --- | --- | --- | --- | --- | --- | --- | --- | --- | --- |
| COCC(O)c1ccc(-c2c(C)nc3c(N4CCOCC4)ccnn23)cn1 (single isomer, unassigned) [Compound 1b] | 0.0603 µM | 0.0501 µM | 53.4% | 54.0% and 56.3% and 50.0% | 55.2% and 57.4% and 46.9% and 53.1% and 54.9% | 50.9% | 52.6% and 49.6% and 50.5% | 52.7% and 46.6% and 51.4% and 49.7% and 51.9% and 53.3% | No relevant concentration dependency | 135.7 °C | – | APO ED50 ([3]; 1 hour pre-treatment with test compound, dose at which 50% of animals show the effect): 1.2 mg/kg; Free fraction, Average (S.D.) (n = 12) ([4]; 0.1 and 13 μg/ml pooled, three subjects in duplicate): 52.2 (3.2) % |
| COCC(O)c1ccc(-c2c(C)nc3c(N4CCOCC4)ccnn23)cn1 (stereo not drawn) [Compound 1, 2-Methoxy-1-[5-(2-methyl-8-morpholin-4-ylimidazo[1,2-b]pyridazin-3-yl)pyridin-2-yl]ethanol] | 0.0646 µM | 0.055 µM | – | – | – | – | – | – | – | 137.2 °C | – | ED50 ([3]; compound dosed orally, 1 hour pre-treatment): 1 mg/kg; Tmax ([5]; male, human, plasma, 100 ug, fasted, Median (Min-Max)): 0.64 h; AUC(0-inf) [5, 7]: 2.64 ng·h/mL; AUC(0-t) [5, 7]: 2.61 ng·h/mL; Cmax [5, 7]: 0.758 ng/mL; Vd/F [5, 7]: 333 ± 117 L; half-life [5, 7]: 5.7 h; Cl/F, fold lower compared to compound 1 of WO2011/051342 [5]: approximately 3.8 fold; Vd/F, fold lower compared to compound 1 of WO2011/051342 [5]: approximately 3.5 fold; CL/F ([5]; fasted, mean): 47.9 ± 24.6 L/h and 47.9 L/h; λz ([5]; fasted, mean): 0.148 h⁻¹ |
| Cc1nc2c(N3CCOCC3)ccnn2c1-c1ccc(C2(O)CCOCC2)nc1 [Compound 3, 4-[5-(2-Methyl-8-morpholin-4-ylimidazo[1,2-b]pyridazin-3-yl)pyridin-2-yl]tetrahydro-2H-pyran-4-ol] | 0.0275 µM | – | – | – | – | – | – | – | – | 189.2 °C | 0.31 mg/kg | – |
| COCC(O)c1ccc(-c2c(C)nc3c(N4CCOCC4)ccnn23)cn1 (single isomer, unassigned) [Compound 1a] | 0.0759 µM | 0.0479 µM | 48.3% | 48.5% and 48.3% | 50.1% and 47.6% and 48.9% and 47.3% | 45.5% | 45.4% and 46.2% | 46.1% and 46.5% and 46.0% and 43.9% and 45.6% | No relevant concentration dependency | 134.9 °C | 1.2 mg/kg | fraction unbound at 4 h, 0.1 μg/ml [6, 9]: 0.481; fraction unbound at 4 h, 0.1 μg/ml [6, 10]: 0.468; fraction unbound at 4 h, 13 μg/ml [6, 9]: 0.448; fraction unbound at 4 h, 13 μg/ml [6, 10]: 0.446; fraction unbound at 4 h ([6]; 0.1 and 13 μg/ml pooled, three subjects in duplicate, read-out: Free fraction, Average (S.D.) (n = 12)): 0.469 |
| COCC(O)c1ccc(-c2c(C)nc3c(N4CCOCC4)nccn23)cn1 (stereo not drawn) [Compound 2, 2-Methoxy-1-[5-(2-methyl-8-morpholin-4-ylimidazo[1,2-a]pyrazin-3-yl)pyridin-2-yl]ethanol] | 0.263 µM | – | – | – | – | – | – | – | – | 106.9 °C | 0.31 mg/kg | – |
| Cc1nc2c(N3CCOCC3)nccn2c1-c1ccc(C2(O)CCOCC2)nc1 [Compound 4, 4-[5-(2-Methyl-8-morpholin-4-ylimidazo[1,2-a]pyrazin-3-yl)pyridin-2-yl]tetrahydro-2H-pyran-4-ol] | 0.112 µM | – | – | – | – | – | – | – | – | 181.6 °C | 0.31 mg/kg | – |
